The record followed here is US20080249035A1, “Polymorph of Clarithromycin (Form V)” (Gruenenthal GmbH, priority 2007, published 2008).

The data set can be described thus: Interconversion tests in acetone (thermodynamic/physical stability of polymorphic forms). The data set is classed as physicochemical. The protocol:
To investigate physical stability in comparison with the known forms form I and form II, the following experiments were carried out (interconversion tests): • a) about 100 mg of form I and approx. 100 mg of form II were put in a 20 ml vial and suspended in 2.5 ml acetone p.a. • b) about 100 mg of form V and approx. 100 mg of form I were put in a 20 ml vial and suspended in 2.5 ml acetone p.a. • c) about 100 mg of form V and approx. 100 mg of form II were put in a 20 ml vial and suspended in 2.5 ml acetone p.a.
All three suspensions were first shaken at room temperature (approx. 20° C.) on a PLS synthesizer at 400 rpm for approx. 2 h. For 20 h the temperature of the suspensions was raised to 40° C. and then left to cool to room temperature (approx. 20° C.) again.
Then the solids were filtered with suction on a G4 frit, made into a slurry with 0.5 ml acetone p.a., washed, and then dried by suction in an air stream, applying a light vacuum.
The crystalline solids were in each case characterized by DSC, XRPD, Raman and TG investigations.

In the case of `CC[C@H]1OC(=O)[C@H](C)[C@@H](O[C@H]2C[C@@](C)(OC)[C@@H](O)[C@H](C)O2)[C@H](C)[C@@H](O[C@@H]2O[C@H](C)C[C@H](N(C)C)[C@H]2O)[C@](C)(OC)C[C@@H](C)C(=O)[C@H](C)[C@@H](O)[C@]1(C)O` [Form I/Form II, clarithromycin], under “approx. 100 mg of each form suspended in 2.5 ml acetone, approx. 2 h at room temperature (approx. 20° C.), 20 h at 40° C., cooled to room temperature, solids characterized by DSC, XRPD, Raman, TG”, the “Product (polymorphic form obtained from the starting mixture in the interconversion test)” value is “Form II”.
With `CC[C@H]1OC(=O)[C@H](C)[C@@H](O[C@H]2C[C@@](C)(OC)[C@@H](O)[C@H](C)O2)[C@H](C)[C@@H](O[C@@H]2O[C@H](C)C[C@H](N(C)C)[C@H]2O)[C@](C)(OC)C[C@@H](C)C(=O)[C@H](C)[C@@H](O)[C@]1(C)O` [Form II, clarithromycin], where the note is “interconversion tests in acetone, 20 to 40° C.”, the “Relative thermodynamic stability of the forms under the test conditions” value is recorded as “thermodynamically more stable than form V as well as more stable than form I”.
